Patent US9714245B2, “Carboline compounds usable in the treatment of neurodegenerative diseases” (ALZPROTECT, priority 2013, dated 2017)

What was measured:
secreted Aβ1-42 = test: Aβ1-42 secretion by APP-transfected neuroblastoma cells (ELISA); assay type: cell-based; conditions: Homo sapiens, Neuroblastoma cell; SKNSH-SYSY APPWT cells; concentration decreasing secreted Aβ1-42 to 50% of basal amount
Protocol: (§1) Cell Cultures and Transfections to Test Activity on Aβ1-40 and Aβ1-42 Secretion
(§2) Human neuroblastoma cell line SKNSH-SYSY (ATCC® Catalog No. CRL-2266™), HEK (ATCC® CRL-1573™) and COS-1 (ATCC® CRL-1650™) cells were maintained in Dulbecco's modified Eagle medium (DMEM, GIBCO BRL) supplemented with 10% fetal calf serum, 2 mM L-glutamine, 1 mM non-essential amino acids, 50 units/ml penicillin/streptomycin (Invitrogen, France) in a 5% CO2 humidified incubator at 37° C. APP695 cDNA was subcloned into eukaryotic expression vector pcDNA3 (Invitrogen), allowing for a G418 (Invitrogen) selection of clones. This APP cDNA coding for the 695 amino acid long isoform was transfected into SKNSH-SYSY cells using the ethyleneimine polymer ExGen 500 (Euromedex) according to the manufacturer's instructions. The cells expressing APP (SKNSH-SYSY APP^WT) were selected by the addition of 200 μg/ml G418 in the cell medium. To quantify AR which released in the cell culture medium, the collected medium was spun at 200×g to eliminate the cell debris. The concentrations of secreted Aâ1-40 and Aβ1-42 were determined using the Human Aβ (1-40) Assay Kit (IBL) or the INNOTEST™ beta-Amyloid (1-42) ELISA Kit (Innogenetics), according to manufacturer's instructions. The results were expressed as IC50, i.e. the concentration able to decrease to 50% the basal amount of secreted Aβ peptide 1-40 and 1-42.

secreted Aβ1-40 = test: Aβ1-40 secretion by APP-transfected neuroblastoma cells (ELISA); assay type: cell-based; conditions: Homo sapiens, Neuroblastoma cell; SKNSH-SYSY APPWT cells; concentration decreasing secreted Aβ1-40 to 50% of basal amount
Protocol: as §1, §2

[1] = Cytotoxicity evaluation (MTS assay); assay type: cell-based, Human; conditions: human, SY5Y-APPWT neuroblastoma cells (expressing APP); SY5Y-APPWT cells, 24 h treatment, MTS
Protocol: Human neuroblastoma cell line SY5Y-APP^WT was used to assess the cytotoxic effects of each compound. SY5Y-APP^WT cells were seeded at 20000 cells/well onto 96-well plates and were cultured in Dulbecco's modified Eagle medium (DMEM, Invitrogen) supplemented with 10% fetal calf serum (PAA), 2 mM L-glutamine (Invitrogen), 1 mM non-essential amino acids (Invitrogen), 50 units/ml penicillin/streptomycin (Invitrogen), and 200 μg G418=geneticin (Invitrogen) (selection for cells expressing APP) in a 5% CO2 humidified incubator at 37° C. After 24 h, the cells were washed and incubated with the compound at 0.1; 0.3; 1; 3; 10; 30 and 100 μM or with DMSO as control diluted in the same culture medium at 37° C. in 5% CO2. After 24 h of treatment, cytotoxicity was determined by using colorimetric MTS assay (CellTiter 96® Aqueous One Solution Cell Proliferation Assay-MTS Promega) according to the protocol of the manufacturer. Absorbance was read at 490 nm and results were expressed as % from control condition considered as 100%.

AICD = test: Quantification of AICD by Western blot in SY5Y-APPWT cells; assay type: cell-based, Human; conditions: compared to a control with a value of 100
Protocol: (§3) Quantifications of APP-CTFs and AICD
(§4) After treatment, SY5Y-APP^WT cells were scrapped and lysed in 1× Lysis Buffer (250 mM NaCl, 50 mM Tris, pH 8.8, 5 mM EDTA, 2.5% Triton X-100, 1% Deoxycholate, 0.1% SDS). For the Western blotting, an equal amount of total proteins (20 μg/lane) was loaded on a 16.5% Tris-Tricine or 8-16% Tris-Glycine polyacrylamide gel.
(§5) SDS-polyacrylamide gel electrophoresis (PAGE) was performed using the Criterion™ Tris-Tricine-precast or Bis-Tris-precast criterion gels (Bio-Rad Bioresearch division). Proteins were transferred to a […] nitrocellulose membrane (Hybond, Amersham Biosciences) at 2.5 mA/cm2 per gel using the Criterion™ Blotter system (Amersham Biosciences), according to the manufacturer's instructions. Proteins were reversibly stained with Ponceau Red in order to check the quality of the transfer of protein. The membranes were blocked in 25 mM Tris-HCl pH 8.0, 150 mM NaCl, 0.1% Tween-20 (v/v) and 5% (w/v) of skimmed milk for 30 min. Membranes were incubated overnight at 4° C. with appropriate dilution of the primary antibodies, and were incubated for 1 h at room temperature with secondary antibody. […] Quantifications were calculated with Image J software (NIH) and the data were collected using Excel Software (Microsoft). The loading variations between Western blot lanes were normalized according to the tubulin signal. Quantification of CTFα and AICD were compared to control conditions (considered as 100 in arbitrary units) and are presented for two concentrations of the drug: 1 and 10 μM.

CTFα = test: Quantification of APP-CTFα by Western blot in SY5Y-APPWT cells; assay type: cell-based, Human; conditions: compared to a control with a value of 100
Protocol: as §3, §4, §5

[2] = molecular target: T1, HIS-tagged valosin-containing protein/p97 (VCP/p97) (Homo sapiens, UniProt P55072); test: VCP interaction assay (competition with biotinylated probe 4.7); assay type: binding; conditions: compound 60 μM against biotinylated probe 4.7 20 μM
T1 construct: purchased TebuBio
T1 sequence (P55072 whole entry): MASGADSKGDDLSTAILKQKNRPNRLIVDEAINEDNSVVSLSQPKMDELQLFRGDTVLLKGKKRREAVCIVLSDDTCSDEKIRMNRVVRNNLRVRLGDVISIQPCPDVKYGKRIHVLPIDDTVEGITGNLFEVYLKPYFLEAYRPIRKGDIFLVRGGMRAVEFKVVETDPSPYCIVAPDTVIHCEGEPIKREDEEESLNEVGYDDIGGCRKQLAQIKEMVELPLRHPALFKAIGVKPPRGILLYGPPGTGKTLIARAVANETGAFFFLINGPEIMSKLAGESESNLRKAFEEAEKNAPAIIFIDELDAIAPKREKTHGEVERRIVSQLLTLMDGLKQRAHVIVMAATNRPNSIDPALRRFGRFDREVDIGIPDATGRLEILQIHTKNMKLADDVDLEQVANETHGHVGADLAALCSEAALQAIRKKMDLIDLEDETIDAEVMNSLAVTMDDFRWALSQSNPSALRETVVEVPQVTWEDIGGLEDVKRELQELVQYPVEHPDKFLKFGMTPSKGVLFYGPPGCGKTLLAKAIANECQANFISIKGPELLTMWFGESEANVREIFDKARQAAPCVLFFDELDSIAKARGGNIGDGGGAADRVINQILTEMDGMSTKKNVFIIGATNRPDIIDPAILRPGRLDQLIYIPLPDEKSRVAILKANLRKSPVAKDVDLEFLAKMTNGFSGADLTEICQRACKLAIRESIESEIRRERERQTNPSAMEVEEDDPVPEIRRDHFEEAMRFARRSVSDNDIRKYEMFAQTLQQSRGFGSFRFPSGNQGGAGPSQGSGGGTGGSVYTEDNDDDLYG
Protocol: Physical interaction between HIS-tagged valosin-containing protein/p97 (VCP/p97) (TebuBio) and biotinylated probe 4.7 was investigated by Enzyme-Linked Assay (ELA) based on HIS-Select® High Sensitivity Nickel coated plates, used following manufacturer's recommendations (Sigma Aldrich). Other chemical compounds were tested in competition with the biotinylated probe 4.7 in this system. Briefly, nickel beads were incubated overnight at 4° C. with 2% casein blocking solution. After a three-time rinse with wash buffer (0.05% Tween20 in phosphate buffer saline), HIS-tagged VCP/p97 protein (5 μg/ml in PBS) was incubated with nickel beads for 90 min at 25° C. Then, the plate was washed three times. Chemical compounds (60 μM) were incubated 10 min at 25° C. before addition of biotinylated probe 4.7 (20 μM) 30 min at 25° C. After five washes, streptavidin-peroxidase (2 μg/ml) was added during 1 h at 25° C., followed by the peroxidase substrate addition 30 min at RT. Reaction was stopped with 0.5M H2SO4 solution and the optical density was read at 450 nm using a microplate reader (VICTOR X4 Wallac, 2030-0040, PerkinElmer). Competition efficiency was quantified by the loss of signal compared to the control condition.

## COc1ccc2[nH]c3c(c2c1)CN(CCCN1CCN(CCCN2CCCCC2)CC1)CC3 [Compound 3.1i, 3-(4-(3-(8-methoxy-1,3,4,5-tetrahydro-1H-pyrido[4,3-b]indol-2-yl)propyl)piperazin-1-yl)propylpiperidine]
Secreted Aβ1-42
  IC50: > 10 µM
Secreted Aβ1-40
  IC50: 10 µM
[1]
  CC50 at 24 h: > 100 µM

## CC(C)CN(CCCN1CCN(CCCN2CCc3[nH]c4ccccc4c3C2)CC1)CC(C)C [Compound 3.1a, N,N-diisobutyl-3-[4-(3-(1,3,4,5-tetrahydro-1H-pyrido[4,3-b]indol-2-yl)propyl)piperazin-1-yl]propylamine]
Secreted Aβ1-42
  IC50: 2.1 µM
AICD
  AICD (10 μM): 1081 arbitrary units
Secreted Aβ1-40
  IC50: 1.2 µM

## c1ccc2c3c([nH]c2c1)CN(CCCN1CCN(CCCN2CCCCC2)CC1)CC3 [Compound 3.2i, 1-[3-(piperidin-1-yl)propyl]-4-(3-{1H,2H,3H,4H,9H-pyrido[3,4-b]indol-2-yl}propyl)piperazine]
Secreted Aβ1-42
  IC50: 5 µM
Secreted Aβ1-40
  IC50: 5 µM
[1]
  CC50 at 24 h: > 100 µM

## Fc1ccc2[nH]c3c(c2c1)CN(CCCN1CCN(CCCN(Cc2ccccc2)Cc2ccccc2)CC1)CC3 [Compound 3.1h, N,N-dibenzyl-3-[4-(3-(8-fluoro-1,3,4,5-tetrahydro-1H-pyrido[4,3-b]indol-2-yl)propyl)piperazin-1-yl]propylamine]
Secreted Aβ1-42
  IC50: 2.5 µM
Secreted Aβ1-40
  IC50: 2.5 µM
[1]
  CC50 at 24 h: 4.8 µM

## COc1ccc2[nH]c3c(c2c1)CN(CCCN1CCN(CCN(CC(C)C)CC(C)C)CC1)CC3 [Compound 3.1g, N,N-diisobutyl-2-(4-(3-(8-methoxy-1,3,4,5-tetrahydro-1H-pyrido[4,3-b]indol-2-yl)propyl)piperazin-1-yl)ethylamine]
Secreted Aβ1-42
  IC50: 3.5 µM
Secreted Aβ1-40
  IC50: 2.5 µM

## CN(C)CCCN1CCN(CCCN2CCc3c([nH]c4ccccc34)C2c2ccccc2)CC1 (stereo not drawn) [Compound 3.2e, N,N-dimethyl-3-(4-(3-(1-phenyl-1,3,4,9-tetrahydro-1H-beta-carbolin-2-yl)propyl)piperazin-1-yl)propylamine]
Secreted Aβ1-42
  IC50: 2 µM
AICD
  AICD (10 μM): 4765 arbitrary units
CTFα
  CTFα (10 μM): 234 arbitrary units
Secreted Aβ1-40
  IC50: 2.5 µM
[1]
  CC50 at 24 h: 12 µM

## COc1ccc2[nH]c3c(c2c1)CN(CCCN1CCN(CCCN(CC(C)C)CC(C)C)CC1)CC3 [Compound 3.1b, N,N-diisobutyl-3-(4-(3-(8-methoxy-1,3,4,5-tetrahydro-1H-pyrido[4,3-b]indol-2-yl)propyl)piperazin-1-yl)propylamine]
AICD
  AICD (10 μM): 16400 arbitrary units
[1]
  CC50 at 24 h: > 10 µM

## Cc1ccc2[nH]c3c(c2c1)CN(CCCN1CCN(CCCN(CC(C)C)CC(C)C)CC1)CC3 [Compound 3.1c, N,N-diisobutyl-3-[4-(3-(8-methyl-1,3,4,5-tetrahydro-1H-pyrido[4,3-b]indol-2-yl)propyl)piperazin-1-yl]propylamine]
Secreted Aβ1-42
  IC50: 10 µM
CTFα
  CTFα (10 μM): 355 arbitrary units
Secreted Aβ1-40
  IC50: 1 µM
[1]
  CC50 at 24 h: 10 µM

## c1ccc2c3c([nH]c2c1)CN(CCCN1CCN(CCN2CCCCC2)CC1)CC3 [Compound 3.2j, 1-[2-(piperidin-1-yl)ethyl]-4-(3-{1H,2H,3H,4H,9H-pyrido[3,4-b]indol-2-yl}propyl)piperazine]
Secreted Aβ1-42
  IC50: 3 µM
Secreted Aβ1-40
  IC50: 5 µM
[1]
  CC50 at 24 h: > 100 µM

## CC(C)CN(CCN1CCN(CCCN2CCc3c([nH]c4ccccc34)C2)CC1)CC(C)C [Compound 3.2h, N,N-diisobutyl-2-{4-[3-(1,3,4,9-tetrahydro-1H-beta-carbolin-2-yl)propyl]piperazin-1-yl}ethylamine]
Secreted Aβ1-42
  IC50: 3 µM
Secreted Aβ1-40
  IC50: 3 µM

## CC(C)CN(CCCN1CCN(CCCN2CCc3c([nH]c4ccccc34)C2c2ccccc2)CC1)CC(C)C (stereo not drawn) [Compound 3.2a, N,N-diisobutyl-3-{4-[3-(1-phenyl-1,3,4,9-tetrahydro-1H-beta-carbolin-2-yl)propyl]piperazin-1-yl}propylamine]
Secreted Aβ1-42
  IC50: 5 µM
Secreted Aβ1-40
  IC50: 2 µM

## CC(C)CN(CCCN1CCN(CCCN2CCc3c([nH]c4ccc(Cl)cc34)C2)CC1)CC(C)C [Compound 3.2b, N,N-diisobutyl-3-{4-[3-(6-chloro-1,3,4,9-tetrahydro-1H-beta-carbolin-2-yl)propyl]piperazin-1-yl}propylamine]
Secreted Aβ1-42
  IC50: > 10 µM
AICD
  AICD (10 μM): 7417 arbitrary units
CTFα
  CTFα (10 μM): 716 arbitrary units
[1]
  CC50 at 24 h: > 100 µM

## CN(C)CCCN1CCN(CCCN2CCc3c([nH]c4ccccc34)C2)CC1 [Compound 3.2d, N,N-dimethyl-3-(4-(3-(1,3,4,9-tetrahydro-1H-beta-carbolin-2-yl)propyl)piperazin-1-yl)propylamine]
Secreted Aβ1-42
  IC50: > 10 µM
AICD
  AICD (10 μM): 41661 arbitrary units
CTFα
  CTFα (10 μM): 1042 arbitrary units
Secreted Aβ1-40
  IC50: > 10 µM
[2]
  VCP (competition efficiency, loss of signal compared to the control): 70%
[1]
  CC50 at 24 h: > 100 µM
